This is an account of results in paper PMC11187542, “Identification of fragments targeting SMYD3 using highly sensitive kinetic and multiplexed biosensor-based screening” (RSC Medicinal Chemistry, 2024).

One experiment deals with T1, SMYD3 (Homo sapiens, UniProt Q9H7B4).
T1 construct: Full length recombinant SMYD3 was produced as previously reported; made in house; host or cells: E. coli BL21(DE3), in some cases Rosetta 2
T1 sequence (Q9H7B4 1-428): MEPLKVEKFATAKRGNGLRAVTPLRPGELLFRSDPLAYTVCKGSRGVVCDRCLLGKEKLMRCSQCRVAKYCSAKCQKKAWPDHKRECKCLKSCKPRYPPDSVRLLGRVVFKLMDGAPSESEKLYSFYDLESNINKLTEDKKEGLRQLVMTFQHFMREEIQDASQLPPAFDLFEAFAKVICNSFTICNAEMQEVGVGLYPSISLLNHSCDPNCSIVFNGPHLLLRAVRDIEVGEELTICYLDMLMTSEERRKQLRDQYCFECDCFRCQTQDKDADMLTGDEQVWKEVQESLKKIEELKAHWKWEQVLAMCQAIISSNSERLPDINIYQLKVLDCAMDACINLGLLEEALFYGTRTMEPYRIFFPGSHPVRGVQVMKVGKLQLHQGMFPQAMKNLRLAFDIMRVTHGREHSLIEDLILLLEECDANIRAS
As to the kind of experiment: X-ray crystallography of SMYD3-fragment complexes (co-crystallization and soaking). More on the design: key to XRC: success or failure of crystallization in complex with SMYD3: The success (+) or failure (−) of crystallization in complex with SMYD3; The success (+) or failure (−) of crystallization in complex with SMYD3. The conditions noted are these: 5 mM fragment co-crystallization or soaking. The source says: To identify binding sites and binding modes, the fragment hits (Table 1) were used in both co-crystallization and soaking experiments to obtain SMYD3-fragment co-crystals for X-ray crystallographic analyses. Diffraction data of 1.6–1.9 Å maximum resolution were obtained for four fragments (Fig. 5). For data collection and refinement statistics, see ESI, ^† Table S1.
Four new sites were thus identified.
Polder (F0–Fc) maps (Fig. 5, right) were generated to establish whether the observed electron density features were more likely to represent background noise or to belong to bound fragments. These omit maps are generated upon exclusion of the ligand and surrounding solvent from the model, which aids in visualizing weak densities. […] For fragments FL01507, FL08580 and FL08619, a comparison of the maps obtained after refinement with a bound fragment with maps obtained upon their replacement with either glycerol or acetate, which were present in the crystallization or cryo-protectant solutions, respectively, was required.
8 mg mL^−1 of SMYD3 in storage buffer (TBS buffer containing 2 mM DTT) was pre-incubated for 4–8 hours with 5 mM of a respective fragment hit compound and 10% (v/v) DMSO. Subsequently, 1 μL of this solution was mixed with an equal volume of reservoir solution (100 mM Tris, 100 mM magnesium acetate, 15–17% PEG3350, pH 8.25–8.75) to create the drops for co-crystallization by hanging drop vapour diffusion performed at 20 °C. Needle-like co-crystals nucleated within 12 h of equilibration against the reservoir. In addition, crystals of SMYD3 obtained in ligand-free crystallization setups were soaked with fragment solution prior to freezing. All crystals were cryo-protected via brief immersion in reservoir solution supplemented with 10% (v/v) glycerol.
Diffraction data were collected at beamline ID23-1 of the European Synchrotron Radiation Facility (ESRF, Grenoble, France). Data were indexed, auto-processed, scaled and merged on-site using the implemented data processing routines and software. Fragment-associated electron density features were identified upon data analysis with the Pipedream system (version 1.4.0, Global Phasing Ltd, Cambridge, United Kingdom), which includes data processing with autoPROC,[14] molecular replacement with Phaser,[15] structure refinement with BUSTER version 2.10.4 (Global Phasing Ltd, Cambridge, United Kingdom), automated ligand fitting with Rhofit (Global Phasing Ltd, Cambridge, United Kingdom) and BUSTER post-refinement.[16] Refinement was done with Phenix,[17] and model building with Coot.[18] (F0–Fc) difference density maps for models, from which ligand atoms and surrounding water molecules were removed, were generated using Phenix.

Experiment [1] has as its target T2, SMYD3 in complex with active site-specific tight-binding inhibitor EPZ031686 (Homo sapiens, UniProt Q9H7B4).
T2 construct: Full length recombinant SMYD3 was produced as previously reported; made in house; host or cells: E. coli BL21(DE3), in some cases Rosetta 2
T2 sequence (Q9H7B4 1-428): T1 sequence (Q9H7B4 1-428)
The experiment is described as follows: GCI biosensor kinetic screening, active site blocked SMYD3 surface. The conditions noted are these: for LE (ligand efficiency): LE = −RT ln(KD)/n, blocked SMYD3 surface; for Kd / kd / kon at 250 µM: initial kinetic screening, fragment 250 μM, 15 °C; for Kd: SMYD3 blocked by EPZ031686; for kd / kon at 250 µM: SMYD3 blocked by EPZ031686, 1:1 model; for kon at 250 µM: read-out: ka. From the text:
(§1) A multiplexed screening assay was set up with three different SMYD3 surfaces and a blank reference surface in flow channels 1–4 (FC1–FC4) (Fig. 2a), as described previously.[5] The apo SMYD3 surface detected fragments interacting anywhere on SMYD3, while a SMYD3 surface blocked by active site-specific tight-binding inhibitor EPZ031686 detected compounds binding elsewhere. The denatured surface served as a reference, detecting fragments binding to unfolded proteins, also potentially present to a significant degree in the other two surfaces.
(§2) The library was screened using the approach described in Fig. 1, i.e. injection of fragments at 250 μM for increasing durations of time in a single cycle, using a flow rate of 100 μL min^−1, data acquisition set to 40 Hz and with an association time of 5 s and dissociation of 20 s. Each fragment was addressed to all four channels and interactions with the native and blocked surfaces compared. The experimental conditions were chosen to ensure that the assay could reliably characterize the fast and transient interactions expected from typical fragments.
(§3) The kinetic screening of 1056 compounds was successfully completed in 72 hours. […] Hits were identified with full kinetic information using dissociation phases.
(§4) All interaction kinetic experiments were conducted with a GCI–flow-based biosensor (WAVEdelta, Creoptix AG/Malvern Panalytical) and PCH WAVEchip (Creoptix AG/Malvern Panalytical) sensor chips. The sensor chips were conditioned using injections of borate buffer (10 mM sodium tetraborate pH 8.5, 1 M NaCl). The running buffer composition, if not otherwise stated, was TBS buffer (50 mM Tris, 150 mM NaCl, 0.5 mM TCEP, 0.05% Tween 20, 1% DMSO, pH 8). SMYD3 was diluted to the desired concentration in 10 mM bis-Tris (pH 7.0) and amine coupled to the sensor surface of the PCH sensor chip. The sensor chip was functionalized at 25 °C by immobilising SMYD3 with EDC and NHS (Xantec) using an injection time of 420 s and a flow rate of 10 μL min^−1. The immobilisation levels ranged from 5000 pg mm^−2 to 18 500 pg mm^−2 surface mass to enable analysis of fragments spanning a broad range of affinities. After immobilization, the surface was deactivated with a running buffer containing 50 mM Tris for 420 s. The GCI data referencing and analysis were performed using WAVEcontrol V4.5 (Creoptix AG).
(§5) Kinetic measurements with controls and fragments were performed at 15 °C. Analysis of controls and follow up of hits was done using the multi cycle kinetic (MCK) injection of a concentration series for the same time, with a two-fold serial dilution starting at 250 μM for each compound. Solvent correction was performed ranging from 0.5–1.8% DMSO. Blank samples of the running buffer, 1× TBS (50 mM Tris, 150 mM NaCl, 0.5 mM TCEP, 0.05% Tween 20, 1% DMSO, pH 8), were injected during the measurements every fifth cycle. The experimental design illustrated in Fig. 1 was used for the screening against all four surfaces. The sensorgrams were adjusted to account for solvent correction and blank subtraction. Kinetic fitting was performed with the Direct Kinetics engine of WAVEcontrol software V4.5 (Creoptix AG) with a suitable fitting model.

A further experiment concerns the target T3, SMYD3 (apo, native) (Homo sapiens, UniProt Q9H7B4).
T3 construct: Full length recombinant SMYD3 was produced as previously reported; made in house; host or cells: E. coli BL21(DE3), in some cases Rosetta 2
T3 sequence (Q9H7B4 1-428): T1 sequence (Q9H7B4 1-428)
As to the kind of experiment: GCI biosensor kinetic screening, apo SMYD3 surface. The experiment is classed as binding. The conditions noted are these: for LE (ligand efficiency): LE = −RT ln(KD)/n; for Kd / kd / kon at 250 µM: initial kinetic screening, fragment 250 μM, 15 °C; for kd / kon at 250 µM: 1:1 model; for kon at 250 µM: read-out: ka.
Excerpt: as §1
After preparing the sensor surface and immobilising SMYD3, the functionality of the surface was assessed via analysis of interactions with the co-factor product S-adenosyl-homocysteine (SAH). It was used as a control in all experiments, confirming that sensor surfaces were intact. This was done using the novel multiple injection-based experimental design (Fig. 1) at 25 μM, i.e. in a weak binder mode (Fig. 2b).
as §2, §3, §4, §5

What is called Kd is the concentration at which binding is half-saturated.

In the case of `Oc1ccc2ccncc2c1` [FL01657], on SMYD3, the “XRC: success or failure of crystallization in complex with SMYD3” value (“XRC: success or failure” for short) is “(−)”. Moreover, in experiment [1], the “LE (ligand efficiency)” value is recorded as 0.53 (kcal^-1 mol^-1)/HA, the dissociation constant (Kd) worked out at 56 µM, the kd was found to be 1.09 s⁻¹ and the kon at 250 µM was 19400 M⁻¹ s⁻¹.

On to `O=C(O)c1cc(Br)c(O)c(Br)c1` [FL01775], for which, on SMYD3, the “XRC: success or failure” value was “(−)”. In experiment [1], the “LE (ligand efficiency)” value was 0.48 (kcal^-1 mol^-1)/HA, the Kd came out at 56 µM, the kd worked out at 1.37 s⁻¹ and the kon at 250 µM came to 24400 M⁻¹ s⁻¹.

As for `CC(C)c1nsc(N)n1` [FL01791], the “XRC: success or failure” value on SMYD3 is on record as “(+)”. For the same molecule, in experiment [1], the “LE (ligand efficiency)” value is on record as 0.67 (kcal^-1 mol^-1)/HA, the Kd was found to be 37 µM, the kd was 1.46 s⁻¹ and the kon at 250 µM was 39100 M⁻¹ s⁻¹.

On to `COc1ccc(-n2ncc(C(=O)O)c2C)cc1` [FL01833], for which the “XRC: success or failure” value on SMYD3 was “(−)”. In addition, in experiment [1], the “LE (ligand efficiency)” value is 0.31 (kcal^-1 mol^-1)/HA, binding was characterised by a dissociation constant (Kd) of 149 µM, the kd was 1.46 s⁻¹ and the kon at 250 µM was 9780 M⁻¹ s⁻¹.

For the molecule `Nc1nc2cccnc2cc1Br` [FL01891], at SMYD3 (apo, native), the “LE (ligand efficiency)” value is 0.52 (kcal^-1 mol^-1)/HA, binding was put at a Kd of 27.4 µM, the kd was 0.70 s⁻¹ and the kon at 250 µM is 25900 M⁻¹ s⁻¹. At SMYD3, the “XRC: success or failure” value is “(−)”.

Consider `COc1ccc(Br)cc1N` [FL01938], for which the “XRC: success or failure” value on SMYD3 is “(−)”. In addition, in experiment [1], the “LE (ligand efficiency)” value was 0.53 (kcal^-1 mol^-1)/HA; the affinity, expressed as Kd, was 124 µM; the kd was 1.61 s⁻¹; the kon at 250 µM was 13000 M⁻¹ s⁻¹.

For `O=C(O)c1ccnc2ccccc12` [FL02261], on SMYD3 (apo, native), the “LE (ligand efficiency)” value is recorded as 0.50 (kcal^-1 mol^-1)/HA, the Kd came to 17.4 µM, the kd stood at 1.09 s⁻¹ and the kon at 250 µM stood at 62700 M⁻¹ s⁻¹. On SMYD3, the “XRC: success or failure” value is “(−)”.

`COc1ccccc1C1OC(=O)CC1C(=O)O` (stereo not shown) [FL03512]: at SMYD3 (apo, native), the “LE (ligand efficiency)” value was 0.35 (kcal^-1 mol^-1)/HA, the dissociation constant Kd was found to be 38 µM, the kd came to 1.61 s⁻¹ and the kon at 250 µM came out at 42200 M⁻¹ s⁻¹. The “XRC: success or failure” value on SMYD3 is “(−)”.

In the case of `Nc1ccc(S(N)(=O)=O)cc1` [FL04272], at SMYD3 (apo, native), the “LE (ligand efficiency)” value was 0.66 (kcal^-1 mol^-1)/HA, the Kd is 4.4 µM, the kd is 0.68 s⁻¹ and the kon at 250 µM stood at 150000 M⁻¹ s⁻¹. The “XRC: success or failure” value on SMYD3 was “(−)”.

Take `NC(=O)c1cccc(O)c1` [FL08580]: at SMYD3 (apo, native), the “LE (ligand efficiency)” value is reported as 0.70 (kcal^-1 mol^-1)/HA, the Kd is 7.84 µM, the kd turned out to be 0.93 s⁻¹ and the kon at 250 µM came out at 118000 M⁻¹ s⁻¹. Besides, the “XRC: success or failure” value on SMYD3 is “(−)”.

As for `O=S(=O)(c1ccccc1)C1CCNC1` (stereo not shown) [FL08644], at SMYD3, the “XRC: success or failure” value was “(−)”. Also, in experiment [1], the “LE (ligand efficiency)” value is recorded as 0.51 (kcal^-1 mol^-1)/HA, binding was put at a Kd of 5.6 µM, the kd was determined as 0.42 s⁻¹ and the kon at 250 µM turned out to be 75200 M⁻¹ s⁻¹.

As to `CC(C)(C)OC(=O)NC1CCC(CC(=O)O)CC1` (stereo not shown) [FL08758], the “XRC: success or failure” value at SMYD3 was “(−)”. In addition, in experiment [1], the “LE (ligand efficiency)” value is listed as 0.32 (kcal^-1 mol^-1)/HA, binding was characterised by a dissociation constant (Kd) of 60 µM, the kd is 2.01 s⁻¹ and the kon at 250 µM stood at 33300 M⁻¹ s⁻¹.

`Nc1ccnc(-c2cccnc2)n1` [FL08779]: the “XRC: success or failure” value on SMYD3 is on record as “(−)”. In experiment [1], the “LE (ligand efficiency)” value was 0.48 (kcal^-1 mol^-1)/HA, binding was put at a Kd of 25 µM, the kd is 1.07 s⁻¹ and the kon at 250 µM stood at 41900 M⁻¹ s⁻¹.

`Nc1nnc(-c2cccnc2)s1` [FL08795]: on SMYD3 (apo, native), the “LE (ligand efficiency)” value is reported as 0.49 (kcal^-1 mol^-1)/HA, the Kd came to 51.3 µM, the kd worked out at 2.04 s⁻¹ and the kon at 250 µM is 39700 M⁻¹ s⁻¹. Besides, on SMYD3, the “XRC: success or failure” value is “(−)”.
